Data as given in patent publication US20230303623A1, “PEPTIDES AND METHODS OF USE” (REALTA LIFE SCIENCES, INC., priority 2020, published 2023).
Entries after “also recorded” stand apart in the source; their conditions may differ.

Assays:
CTLA-4 = target: T1, CTLA-4 (Homo sapiens, UniProt P16410); assay: CTLA-4 Blockade Bioassay (Promega); type: cell-based; parameters: host or cells: Jurkat T cells (CTLA-4 effector cells) co-cultured with aAPC/Raji cells; conditions: increasing concentrations
T1 sequence (P16410 36-223): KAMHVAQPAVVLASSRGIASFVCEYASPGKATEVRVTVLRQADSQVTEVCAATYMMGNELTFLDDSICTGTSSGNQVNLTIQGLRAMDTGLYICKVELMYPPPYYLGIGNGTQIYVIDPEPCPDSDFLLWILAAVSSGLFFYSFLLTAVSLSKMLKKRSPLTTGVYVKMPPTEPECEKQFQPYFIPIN
Description: CTLA-4 effector cells were incubated with aAPC/Raji Cells in the absence or presence of increasing concentrations of anti-CTLA-4 antibody (positive control), RLS-0122, RLS-0150, RLS-0154, RLS-0164 and RLS-0168 and RLS-0088 (negative control). Luminescence was detected in luminometer plate reader. The drop-off in signal with the test peptides at high concentrations is due to cell death as a result of peptide buffer effects on the cells.
To assess if PIC1 peptides could block CTLA-4 inhibitory activity in a cell-based assay, select peptides were screened in the CTLA-4 Blockade Bioassay (Promega). This bioluminescent cell-based assay can be used to measure the potency and stability of molecules targeting CTLA-4 and consists of two genetically engineered cell lines: CTLA-4 effector cells: Jurkat T cells expressing human CTLA-4 and a luciferase reporter driven by a native promoter which responds to TCR/CD28 activation and aAPC/Raji Cells: Raji cells expressing an engineered cell surface protein designed to activate cognate TCRs in an antigen-independent manner and endogenously expressing CTLA-4 ligands CD80 and CD86. When the two cell types are co-cultured, CTLA-4 competes with CD28 for their shared ligands, CD80 and CD86 and thus inhibits CD28 pathway activation and promoter-mediated luminescence. Addition of a molecule that blocks the interaction of CTLA-4 with its ligands CD80 and CD86 results in promoter-mediated luminescence.

[1] = without PEGylation; as described in U.S. Pat. No. 10,005,818; cited from earlier work
PD-1 binding to PD-L1 = target: T2, PD-1 binding to PD-L1 (Homo sapiens, UniProt Q9NZQ7); assay: PD-1:PD-L1 inhibitor screening ELISA; conditions: FIG. 8
T2 construct: purchased
Description: PIC1 peptides were allowed to bind to immobilized PD-L1 on the surface of the plate. Biotinylated PD-1 was then added and bound PD-1 detected by streptavidin-HRP reagent followed by TMB as the substrate for the colorimetric assay.
This inhibitor screening ELISA pair was designed to facilitate the identification and characterization of new PD-1 pathway inhibitors. In this assay, biotinylated human PD-1 was bound to immobilized human PD-L1 and a colorimetric sandwich ELISA platform was used. Plates were coated with human PD-L1 followed by incubation with various PIC1 peptides. Human PD-1-Biotin was then allowed to bind the coated human PD-L1 followed by addition of streptavidin-HRP. TMB was then added as the colorimetric HRP substrate and the wells of the plate analyzed in a plate reader at an absorbance of 450 nm.
The immune checkpoint pathway is an area of significant interest in cancer research. PD-1 is one of the best characterized checkpoint proteins. The binding between PD-1 and its ligand PD-L1 suppresses T-cell activation and allows cancer cells to escape from body's immune surveillance. Therefore, the pharmaceutical inhibition of PD-1 or its ligand has been considered a promising strategy by many cancer researchers. To ascertain if these PIC1 derivatives could inhibit PD-1 interaction with PD-L1, a commercial ELISA kit was utilized. […]

[2] = test system: purified human Pan T-cells; assay: T-cell exhaustion protocol (repeated CD3/CD28 Dynabead stimulation); type: cell-based; conditions: ELISA; for Caspase 3/7 levels, in words: peptides 2 mg/ml at each stimulation, day 8; for IFN-gamma levels in cell supernatants, in words / IL-2 levels in cell supernatants, in words: peptides 2 mg/ml, stimulation 2
Description: Purified human pan-T-cells were subject to stimulation with Dynabeads every 48 hours over the period of 8 days with cells also receiving PIC1 peptides (2 mg/ml) at each stimulation. Cells not receiving Dynabeads were run in parallel to assess background levels of Caspase 3/7 signal. At the eighth day, cells were harvested, and the levels of Caspase 3/7 determined by ELISA.
Purified human pan-T-cells were subject to stimulation with Dynabeads every 48 hours over the period of 8 days with cells also receiving PIC1 peptides (2 mg/ml) at each stimulation. Cell supernatants were collected at each stimulation and levels of IL-2 and IFN-gamma assayed by ELISA.
T-cell exhaustion is a form of T-cell dysfunction that occurs in cancer. It is generally defined by poor effector function, reduction in cytokine release (e.g., IL-2, TNF-alpha, IFN-gamma), sustained expression of inhibitory receptors (e.g., PD-1, LAG-3, CD244, CD160) with the progressive loss of effector function due to overstimulation. Exhaustion can prevent optimal control of tumor growth. Exhausted T cells are prevalent in the tumor microenvironment (TME) and can lead to T-cell apoptosis. T-cell exhaustion is reversible and pharmaceutical inhibition of T-cell exhaustion has been considered a promising strategy by many cancer researchers. To ascertain if PIC1 peptides could reverse T-cell exhaustion and increase T cell viability and effector function, a T-cell exhaustion protocol was developed. To induce T-cell exhaustion, purified human Pan T-cells were stimulated with T-Activator CD3/CD28 Dynabeads and cells were washed and re-stimulated every 48 hours. PIC1 peptides were added to the cells after each stimulation with Dynabeads. After three to four stimulations, cells were harvested for readouts which consisted of assessing T-cell apoptosis by measuring Caspase 3/7 levels and production of cytokines IL-2 and IFN-gamma, which are indicative of T-cell functionality. […] To further evaluate if PIC1 peptides could restore T-cell functionality in cells that have undergone the exhaustion protocol, the inventors next assessed production of cytokines IL-2 and IFN-gamma. Supernatants from the cells after each stimulation was collected and the cytokines measured by ELISA. […] The lower level of IFN-gamma signal was consistently seen in this assay.

VEGF [3] = target: T3, VEGF (Homo sapiens, UniProt P15692); assay: VEGF Bioassay (Promega), VEGF signaling via VEGFR-2 (KDR); type: cell-based
T3 construct: Promega (bioassay)
T3 sequence (P15692 27-191 isoform P15692-4): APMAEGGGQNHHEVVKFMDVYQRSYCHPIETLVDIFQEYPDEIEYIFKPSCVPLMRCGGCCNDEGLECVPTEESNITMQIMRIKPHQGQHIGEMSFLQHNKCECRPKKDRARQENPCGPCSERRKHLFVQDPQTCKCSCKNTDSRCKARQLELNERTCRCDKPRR
Source text: Luminescence was detected in luminometer plate reader.
(§1) Angiogenesis, or the formation of new blood vessels from the established vasculature, is an essential element in tumor growth and metastasis formation. Inhibiting tumor angiogenesis is considered a major therapeutic strategy in oncology. […] The bioluminescent signal is detected in a luminometer.

HUVECs = assay: LPS-induced non-VEGF mediated angiogenesis (tube formation) in HUVECs; type: cell-based, human; conditions: peptides 10 mg/ml; LPS 10 ug/ml; overnight
Description: HUVEC cells were incubated with either RLS-0122, RLS-0150, RLS-0154, RLS-0164 and RLS-0168 followed by LPS addition and plating onto extracellular matrix. After overnight incubation, evidence of angiogenesis was determined by fluorescence microscopy. Cells receiving LPS and not receiving LPS served as positive and negative controls for angiogenesis.
Currently there are no drugs on the market to inhibit non-VEGF mediated angiogenesis. To assess whether the PIC1 peptides could inhibit non-VEGF mediated angiogenesis, the inventors developed a model of angiogenesis using human umbilical endothelial vein cells (HUVECs) in which addition of lipopolysaccharide (LPS) induces angiogenesis. HUVECs were first incubated with Cell Trace Violet dye, followed by addition of PIC1 peptides (10 mg/ml) for 1 hour at 37° C. and then treated with 10 ug/ml of LPS and placement on an extracellular matrix to promote angiogenesis. Cells were incubated overnight at 37° C. in a humidified CO2 incubator. Cells were then visualized for tube formation indicative of angiogenesis by fluorescence microscopy.

[4] = Total Antioxidant Capacity (TAC) assay; conditions: highest peptide concentration 1.5 mM; compared to parent peptide
Description: As previously reported, the TAC (Total Antioxidant Capacity) Assay (Cell Biolabs, Inc, San Diego, CA) was used to measure the antioxidant capacity of the PIC1 variants based on the reduction of copper (II) to copper (I). The kit protocol was performed per the manufacturer's recommendations.
The antioxidant properties for the PIC1 variants were evaluated in a Total Antioxidant Capacity (TAC) assay, as previously reported. Total antioxidant activity over a range of peptide concentrations were determined for the stapled and the D-amino acid peptides based on the PA-I8Sar and PA-C9Sar backbones (FIG. 4A-4B), with the activity of the highest peptide concentration reported (1.5 mM) (FIG. 5A-5C).

VEGF [5] = target: T3, VEGF; assay: VEGF binding ELISA plate-based assay; conditions: peptides 1 mg/ml
Description: A fixed amount of PIC1 peptides (1 mg/ml) were added to the plates followed by a rabbit polyclonal antibody that recognizes the peptides and then a secondary anti-rabbit antibody conjugated with HRP. The plate was then developed by addition of TMB as the substrate for the colorimetric assay.
as §1

T2 sequence (Q9NZQ7 19-238 limits assumed): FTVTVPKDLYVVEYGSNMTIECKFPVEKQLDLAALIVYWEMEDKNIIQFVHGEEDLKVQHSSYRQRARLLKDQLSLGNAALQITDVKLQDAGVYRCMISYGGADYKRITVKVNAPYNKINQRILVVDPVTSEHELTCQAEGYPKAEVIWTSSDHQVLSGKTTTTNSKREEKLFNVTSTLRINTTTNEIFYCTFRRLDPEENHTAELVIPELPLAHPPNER

| Substance | inhibition of CTLA-4 mediated cell signaling (increase in luminescence), in words (CTLA-4) | solubility in water [1] | inhibition of binding of PD-1 to PD-L1, in words (PD-1 binding to PD-L1) | Caspase 3/7 levels, in words ([2]; listed as RLS-0168) | IFN-gamma levels in cell supernatants, in words ([2]; listed as RLS-0168) | IL-2 levels in cell supernatants, in words ([2]; listed as RLS-0168) | inhibition of CTLA-4 mediated cell signaling (increase in luminescence), in words (CTLA-4; listed as RLS-0168) | inhibition of VEGF signaling via VEGFR-2 (luminescence), in words (VEGF [3]) | tube formation / angiogenesis inhibition, in words (HUVECs) | Caspase 3/7 levels, in words ([2]; listed as RLS-0164) | IFN-gamma levels in cell supernatants, in words ([2]; listed as RLS-0164) | IL-2 levels in cell supernatants, in words ([2]; listed as RLS-0164) | total antioxidant capacity, in words [4] | inhibition of CTLA-4 mediated cell signaling (increase in luminescence), in words (CTLA-4; listed as RLS-0164) | binding to VEGF, in words (VEGF [5]) |
| --- | --- | --- | --- | --- | --- | --- | --- | --- | --- | --- | --- | --- | --- | --- | --- |
| IALILEP(Sar)CCQERAA (IALILEPXCCQERAA; sarcosine at position 8; MOD_RES (8)..(8) Sarcosine) [PA-0088, parent peptide, sarcosine at position 8 of PIC1] | no inhibitory over background | water soluble without PEGylation | did not inhibit |  |  |  |  |  |  |  |  |  |  |  |  |
| IALILEPI(Sar)CQERdAA (IALILEPIXCQERAA; D-Ala; sarcosine; MOD_RES (9)..(9) Sarcosine; MOD_RES (14)..(14) D-amino acid) [PA-0168] |  |  |  | very low to undetectable levels; also recorded: reduced levels | detectable at stimulation 2; also recorded: increased levels | detectable IL-2 at stimulation 2; also recorded: increased levels | showed inhibitory activity; also recorded: able to inhibit CTLA-4 mediated cell signaling | did not inhibit signaling | no detectable tube formation |  |  |  |  |  |  |
| IALILEPI(Sar)dCQERAA (IALILEPIXCQERAA; D-Cys; sarcosine; MOD_RES (9)..(9) Sarcosine; MOD_RES (10)..(10) D-amino acid) [PA-0164] |  |  |  |  |  |  |  | did not inhibit signaling | no detectable tube formation | decreased levels; also recorded: reduced levels | showed IL-2 and IFN-gamma signal at stimulation 2; also recorded: increased levels | showed IL-2 and IFN-gamma signal at stimulation 2; also recorded: increased levels | enhanced activity | showed inhibitory activity; also recorded: able to inhibit CTLA-4 mediated cell signaling | binding with high affinity |
